According to patent US20120329798A1, “METHODS AND COMPOSITIONS FOR TREATING LUEKEMIA” (priority 2009, published 2012):
Where a name gives a salt, the structure may show the parent alone.

What was measured:
[1] = test system: primary CD34+ CP CML cells; experiment: Colony forming assay and serial re-plating of primary CML cells; type: cell-based, human; conditions: for proliferation index (PI) of re-plated colonies (AUC): 3d nilotinib and/or compound A exposure, 132 colonies per arm, compared to untreated cells, FIG. 7
Procedure: Primary cells were obtained from newly diagnosed and untreated patients with CML in chronic phase. These cells were enriched for CD34+using magnetic-activated cell sorting prior to cryopreservation in 10% DMSO and 4% human albumin solution in liquid nitrogen. Samples were thawed and washed in a solution of DNAse, human albumin solution, magnesium chloride, and phosphate buffered saline. Upon thaw primary cells were cultured in a serum free medium comprising of Iscove's Modified Dulbecco Medium with bovine serum albumin, insulin, transferring, P2 mercaptoethanol and growth factors (100 ng/mL Flt3-ligand, 100 ng/mL stem cell factor, 20 ng/mL interleukin (IL)-3, IL-6 and 50 ng/mL granulocyte-colony stimulating factor) for 24 hours.
Viable cells were enumerated using trypan blue dye exclusion and set up in culture in serum free medium (SFM) with the stated concentrations of Compound A and/or nilotinib. Following 72 hours (h) culture the cells were washed twice in phosphate buffered solution (PBS) and viable cells counted, again by trypan blue exclusion. These cells were then used for a series of colony forming and re-plating assays.
In the colony forming assay (CFA) a single cell suspension is created in semisolid media with appropriate cytokines. This enables the assessment of colony formation from each individual cell. In order to measure the effect of compound A and/or nilotinib on the relative abundance of CD34+ CP CML progenitor cells, CFA were set up in METHOCULT with cells plated at an initial concentration of 4000 cells per mL in duplicate. Colonies were identified and enumerated 14-16 days (d) following plating.
An accepted in vitro technique to approximate self-renewal activity is serial re-plating. Colonies derived from a CFA are individually plucked and re-dispersed in further METHOCULT. The capacity to reform colonies following re-dispersion is related to the number of primitive progenitors remaining within each individual colony and is therefore an indirect measurement of self-renewal. Following CFA 20-30 individual non-erythroid colonies from each experimental arm were then plucked with a p10 pipettor (one tip per colony using an inverted microscope) and carefully dispersed into 100 μL METHOCULT with a further 10 μL SFM in 96 well plates prior to incubation for a further 7d. Resultant secondary colonies were enumerated in each well and; in the case of wells containing secondary colonies; the entire contents were re-dispersed in a further 100 μL METHOCULT to assess tertiary colony formation.
Colony assays were performed in METHOCULT with cells plated at an initial concentration of 4000 cells per mL in duplicate. Colonies were identified and enumerated 14-16 days (d) following plating. […]

[2] = test system: mouse bone marrow cells infected with Bcr-abl retrovirus; experiment: Methylcellulose colony formation and re-plating of Bcr-Abl infected bone marrow cells; type: cell-based; conditions: 72 h pre-treatment; for colony formation in the first methylcellulose plating: compared to control DMSO group, FIG. 8
Text: Colony formation was scored 10 days after plating.
FIG. 9. Colonies obtained in the 1st plating experiment of FIG. 8 were resuspended and washed in PBS containing 10% FCS. Cells were resuspended in OPTI-MEM media and plated in methylcellulose at a concentration of 5000 cells per 35 mm plate. Colony formation was scored 10 days after plating.
Mouse bone marrow cells were infected with a bicistronic retroviral Bcr-Abl vector (Bcr-Abl-IRES-GFP). […] Clonogenic colony formation assays assess the self-renewal capacity of early progenitor/stem cells.

[3] = test system: bone marrow transplant model of Bcr-Abl to induce CML in mice; experiment: Bone marrow transplant model of Bcr-Abl induced CML, survival; type: in vivo, mouse; conditions: groups of 8 mice; two week treatment; compound A 80 mg/kg po qd, AMN107 75 mg/kg po qd or combination; FIG. 10
Procedure: A bone marrow transplant model of Bcr-Abl was used to induce CML in mice. Briefly, a bicistronic retroviral Bcr-Abl vector (Bcr-Abl-IRES-GFP) was used to produce virus to infect progenitor bone marrow (BM) cells collected from mice previously treated with 5-FU. After 3 rounds of infection, 200,000 GFP positive progenitor BM cells were transplanted into lethally irradiated hosts. Two weeks post-BMT, peripheral blood samples were analyzed by FACS analysis to establish the percentage of GFP positive cells present in the recipient mice. […] During the entire study period the mice were followed for any sign of leukemia development, such as hunched position, lost of body weight or inability of grooming. The animals were sacrificed when they reached any of the previously described signs.

CML = conditions: standard of therapy for CML; cited from earlier work

Row | Compound | re-plating capacity (total secondary and tertiary colonies as percentage of untreated control) ([1]; 72 h culture with drug, first and second re-plate, FIG. 1 and 2) | proliferation index (PI) of re-plated colonies (AUC) ([1]; 4 experiments) | colony number upon secondary re-plating of the colonies ([2]; FIG. 9) | colony formation in the first methylcellulose plating [2] | number of animals sacrificed to date [3] | response rates (CML) | re-plating capacity (total number of secondary colonies) ([1]; 3d exposure, Compound A 10 nM and/or nilotinib 5 μM, 4 experiments, FIG. 6)
1 | Cc1c(C(=O)Nc2ccc(N3C[C@@H](C)O[C@@H](C)C3)nc2)cccc1-c1ccc(OC(F)(F)F)cc1 [Compound A, 2-Methyl-4′-trifluoromethoxy-biphenyl-3-carboxylic acid [6-(cis-2,6-dimethyl-morpholin-4-yl)-pyridin-3-yl]-amide] | reduction in re-plating capacity | reduction in PI | pronounced reduction in colony number | No reduction of colony formation | all |  | 
2 | Cc1ccc(NC(=O)c2ccc(CN3CCN(C)CC3)cc2)cc1Nc1nccc(-c2cccnc2)n1 [Imatinib mesylate] |  |  |  |  |  | more than 96% | 
3 | Cc1cn(-c2cc(NC(=O)c3ccc(C)c(Nc4nccc(-c5cccnc5)n4)c3)cc(C(F)(F)F)c2)cn1 [nilotinib] |  | relative increase in PI |  | No reduction of colony formation | 5 |  | non-significant increase in re-plating capacity
